Usually IC50 stands for the concentration needed to halve the response being measured. One may read the inhibition as the relative decrease from the control value, in per cent.

In series [1] the test system is 4T1 cells. The series can be described thus: 3D spheroid size assay. The class given is cell-based, murine. The conditions noted are these: 72 h. As to the method: Anchorage-dependent, spheroid, and soft agar cell growth assays: Cells (2×10^5) were plated per 35 mm well under adherent (tissue culture-treated) and non-adherent conditions (poly-HEMA-coated) in 6-well plates (Costar) in growth media. Between 24 and 168 h, all cells were collected, a single cell suspension was prepared by limited trypsin-EDTA treatment, and viable cells were enumerated by trypan blue staining and counting (ViCell XR, Beckman). For spheroid area determination, cells were imaged after 72 h in phase contrast using an Olympus IX51 microscope. Area was calculated using Image J software (version 1.43). For soft agar assays, 48-well plates were coated with a 1:4 mix of 2% agar (EM Science) in 0.2 ml growth media (bottom layer). 5×10^4 cells were plated per well (in triplicate) in a mixture of 0.3% agar in 0.2 ml growth media (top layer). […] After 10 days, colonies were imaged in phase contrast, enumerated by counting 9 fields (3 fields per well), and total area determined using Image J. For all analyses, experimental points were performed in triplicate and were experiments were repeated at least two times.

The subject of series [2] is 4T1 cells. The series can be described thus: Cell adhesion to fibronectin. In kind it is cell-based, murine.
For a further series, the target named is T1, c-Src (pY416 Src) (Mus musculus, UniProt P05480).
T1 construct: endogenous in cells; host or cells: 4T1 murine mammary carcinoma cells
Put plainly: Phospho-specific immunoblotting of Src pY416 in 4T1 cells. In kind it is cell-based, murine. For orientation: Immunoblotting shows a protein as a band on a membrane.

The subject of series [3] is ID8 ovarian carcinoma cells. The series can be described thus: Intraperitoneal ID8 ovarian carcinoma tumor growth in C57Bl6 mice. In kind it is in vivo, C57B16 mice. The method, then:
Mouse tumor studies: Six to eight week old female C57B16 and BALB/c mice were obtained from Harlan Laboratories (Indianapolis, Ind.) and housed in pathogen-free conditions, according to the guidelines of the Association for the Assessment and Accreditation for Laboratory Animal Care, International. All in vivo studies were carried out under an approved institutional experimental animal care and use protocol. Growing tumor cells were harvested by limited trypsinization, washed in PBS, and counted using a ViCell XR (Beckman) prior to injection. Cell viability as measured by trypan blue exclusion was >95%. For subcutaneous tumor growth, 1×10^6 mCherry-labeled 4T1 cells in 100 μl PBS were injected into the hindflank of Balb/C mice. […] Control animals received PEG400:PBS injections and at 13 days, tumors were imaged in situ using an Olympus OV100 Intravital Fluorescence Molecular Imaging System, tumors were excised and weighed, half was frozen in OCT, and half was solubilized in protein lysis buffer for FAK phosphorylation analyses. For ID8 ovarian carcinoma tumor growth, 0.8 mL of 1×10^7 ID8 cells in PBS was intraperitoneal injected into C57B16 mice. […] Administration continued ad libitum for 30 days after which mice were euthanized, ascites fluid collected, cells obtained by centrifugation (2000 rpm for 5 min), cell volume measured by pipet, and then solubilized in protein lysis buffer for immunoblotting analyses.

Series [4] has as its target T2, FAK Tyr-397 phosphorylation (Homo sapiens, UniProt Q05397).
T2 construct: endogenous in cells; host or cells: MDA-MB-231 human breast carcinoma cells
Put plainly: Anti-phospho-specific immunoblotting of FAK Tyr-397 in human breast carcinoma cells. The class given is cell-based. From the text: Immunoblotting: Protein extracts of cells were made using lysis buffer containing 1% Triton X-100, 1% sodium deoxycholate, and 0.1% SDS and were separated by 4-12% SDS-PAGE (sodium dodecyl sulfate polyacrylamide gel electrophoresis) and sequential immunoblotting performed as described in Mitra S K, Lim S T, Chi A, Schlaepfer D D. Intrinsic focal adhesion kinase activity controls orthotopic breast carcinoma metastasis via the regulation of urokinase plasminogen activator expression in a syngeneic tumor model. Oncogene 2006; 25:4429-40. Relative expression levels and phospho-specific antibody reactivity were measured by densitometry analyses of blots using Image J (version 1.42q). Inhibition of FAK and p130Cas tyrosine phosphorylation was quantified by calculating the ratio of pY397 FAK protein to total FAK. Similar analyses were performed for p130Cas using pY410 p130Cas and total p130Cas blot data.

The target of another series is T3, Aurora-A (Homo sapiens, UniProt O14965).
T3 construct: purchased Millipore (KinaseProfiler service)
The series can be described thus: Millipore KinaseProfiler selectivity screen. The class given is biochemical. The note with it: read-out: kinase inhibition. As to the method: (§1) Baculovirus FAK catalytic domain and in vitro kinase assays: The FAK catalytic domain region (411-686) was generated by polymerase chain reaction using the primers 5′-[…]-3′ 5′-[…]-3′, cloned into pGEX4T as a fusion with GST, and moved into the pAcG2T baculovirus expression vector (Pharmingen, Baculogold). Virus clones were identified by plaque assays and amplified. For protein expression, SF9 cells were transduced at a multiplicity of infection of 2-5 pfu/cell and cultured at 27° C. for 48 h. Glutathione agarose affinity chromatography were used to purify GST-FAK (411-686) followed by size fractionation using hiload 16/60 Superdex chromatography (GE Healthcare). Protein was concentrated and stored frozen in 50 mM Tris pH 8.0, 150 mM NaCl, 1 mM Na orthovanadate, 0.5 mM EDTA, 0.5 mM EGTA, 0.1% β-mercaptoethanol, and 20% glycerol. Purity was estimated at >90% by SDS-PAGE. GST-FAK in vitro kinase activity was measured and compared to His-tagged FAK 411-686 (Millipore) using the K-LISA screening kit (Calbiochem) and poly(Glu:Tyr) (4:1) copolymer (P0275, Sigma) as a substrate immobilized on microtiter plates. […] Serial diluted compounds at ½-Log concentrations (starting at 1 μM) were tested in triplicate. Substrate phosphorylation was measured using horseradish peroxidase-conjugated anti-pTyr antibodies (PY20, Santa Cruz Biotechnology) with spetrophotometic color quantitation. IC50 values were determined using the Hill-Slope Model. Kinase selectivity profiling was performed by using the KinaseProfiler service (Millipore).

The target in series [5] is T4, Lck (lymphocyte-specific protein tyrosine kinase) (Homo sapiens, UniProt P06239).
T4 construct: purchased Millipore (KinaseProfiler service)
Put plainly: Millipore KinaseProfiler selectivity screen. The class given is biochemical. As to the method:
as §1

Series [6] has as its target T5, ACK1 (activated Cdc42-associated tyrosine kinase 1) (Homo sapiens, UniProt Q07912).
T5 construct: purchased Millipore (KinaseProfiler service)
Put plainly: Millipore KinaseProfiler selectivity screen. In kind it is biochemical. The method, then: as §1

The mark [7] stands for this setting: 0.5 mg/ml ad libitum, 30 treatment days.

T5 sequence (Q07912 whole entry): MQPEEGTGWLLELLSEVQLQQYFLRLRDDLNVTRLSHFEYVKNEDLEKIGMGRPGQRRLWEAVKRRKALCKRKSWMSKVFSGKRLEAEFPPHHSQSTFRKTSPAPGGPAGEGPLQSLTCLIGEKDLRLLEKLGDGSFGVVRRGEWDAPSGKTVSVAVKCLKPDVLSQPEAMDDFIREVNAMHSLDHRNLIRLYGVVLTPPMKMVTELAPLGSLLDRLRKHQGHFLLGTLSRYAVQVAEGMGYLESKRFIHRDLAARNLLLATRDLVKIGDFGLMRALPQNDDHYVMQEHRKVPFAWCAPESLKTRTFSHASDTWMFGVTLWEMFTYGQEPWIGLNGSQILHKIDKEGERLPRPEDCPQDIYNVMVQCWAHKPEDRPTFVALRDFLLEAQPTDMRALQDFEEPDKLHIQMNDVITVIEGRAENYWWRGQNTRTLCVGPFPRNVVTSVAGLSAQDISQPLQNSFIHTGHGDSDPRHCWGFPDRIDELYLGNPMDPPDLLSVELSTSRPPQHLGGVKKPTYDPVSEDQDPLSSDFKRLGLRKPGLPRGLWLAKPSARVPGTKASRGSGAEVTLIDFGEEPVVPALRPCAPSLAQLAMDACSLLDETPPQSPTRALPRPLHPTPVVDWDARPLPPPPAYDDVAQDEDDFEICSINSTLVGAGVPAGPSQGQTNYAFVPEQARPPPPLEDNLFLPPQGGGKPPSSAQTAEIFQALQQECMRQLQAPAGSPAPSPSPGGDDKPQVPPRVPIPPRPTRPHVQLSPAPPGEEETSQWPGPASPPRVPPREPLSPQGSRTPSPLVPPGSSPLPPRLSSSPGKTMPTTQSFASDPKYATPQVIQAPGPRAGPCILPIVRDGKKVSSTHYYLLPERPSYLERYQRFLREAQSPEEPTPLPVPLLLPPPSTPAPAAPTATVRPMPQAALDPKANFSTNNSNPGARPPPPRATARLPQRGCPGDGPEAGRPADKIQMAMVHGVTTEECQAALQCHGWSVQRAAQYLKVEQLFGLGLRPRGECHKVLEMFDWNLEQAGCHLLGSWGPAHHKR
T3 sequence (O14965 whole entry): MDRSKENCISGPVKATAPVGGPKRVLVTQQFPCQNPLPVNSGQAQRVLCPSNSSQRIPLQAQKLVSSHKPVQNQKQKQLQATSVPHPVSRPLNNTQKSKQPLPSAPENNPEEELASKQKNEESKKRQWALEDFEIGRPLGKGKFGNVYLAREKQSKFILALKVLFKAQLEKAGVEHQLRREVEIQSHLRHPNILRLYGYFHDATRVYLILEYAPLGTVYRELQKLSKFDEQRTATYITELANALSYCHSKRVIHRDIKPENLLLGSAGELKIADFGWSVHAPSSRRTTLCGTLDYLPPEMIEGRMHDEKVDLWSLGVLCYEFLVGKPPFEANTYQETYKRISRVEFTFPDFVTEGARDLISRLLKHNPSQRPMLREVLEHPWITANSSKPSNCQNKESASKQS
T2 sequence (Q05397 whole entry): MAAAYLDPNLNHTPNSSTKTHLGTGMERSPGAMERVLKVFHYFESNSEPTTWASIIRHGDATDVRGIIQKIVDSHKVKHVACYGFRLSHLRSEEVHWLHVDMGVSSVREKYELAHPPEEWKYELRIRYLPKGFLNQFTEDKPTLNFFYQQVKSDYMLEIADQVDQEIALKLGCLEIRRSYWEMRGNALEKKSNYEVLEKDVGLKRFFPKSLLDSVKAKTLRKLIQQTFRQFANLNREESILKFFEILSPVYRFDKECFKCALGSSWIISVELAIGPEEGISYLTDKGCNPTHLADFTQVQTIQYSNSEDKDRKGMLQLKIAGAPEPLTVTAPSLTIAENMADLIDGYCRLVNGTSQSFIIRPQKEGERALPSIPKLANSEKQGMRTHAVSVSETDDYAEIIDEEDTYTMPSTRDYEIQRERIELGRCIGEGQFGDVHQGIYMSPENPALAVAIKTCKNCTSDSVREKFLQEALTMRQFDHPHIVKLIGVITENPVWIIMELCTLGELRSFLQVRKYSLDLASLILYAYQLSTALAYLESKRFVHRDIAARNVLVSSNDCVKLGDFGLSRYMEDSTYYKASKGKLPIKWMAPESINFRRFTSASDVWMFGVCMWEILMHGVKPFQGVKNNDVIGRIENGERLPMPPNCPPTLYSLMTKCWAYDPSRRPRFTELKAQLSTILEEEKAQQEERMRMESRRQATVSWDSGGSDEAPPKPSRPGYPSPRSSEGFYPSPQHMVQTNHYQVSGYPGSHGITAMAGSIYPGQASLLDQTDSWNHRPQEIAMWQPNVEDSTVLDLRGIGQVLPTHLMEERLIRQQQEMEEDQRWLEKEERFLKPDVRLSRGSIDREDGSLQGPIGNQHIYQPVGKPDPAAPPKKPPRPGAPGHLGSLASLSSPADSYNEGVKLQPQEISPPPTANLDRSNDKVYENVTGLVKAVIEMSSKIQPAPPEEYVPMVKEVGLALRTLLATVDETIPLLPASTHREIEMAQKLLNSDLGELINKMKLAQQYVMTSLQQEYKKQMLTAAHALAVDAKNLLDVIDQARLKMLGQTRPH
T4 sequence (P06239 whole entry): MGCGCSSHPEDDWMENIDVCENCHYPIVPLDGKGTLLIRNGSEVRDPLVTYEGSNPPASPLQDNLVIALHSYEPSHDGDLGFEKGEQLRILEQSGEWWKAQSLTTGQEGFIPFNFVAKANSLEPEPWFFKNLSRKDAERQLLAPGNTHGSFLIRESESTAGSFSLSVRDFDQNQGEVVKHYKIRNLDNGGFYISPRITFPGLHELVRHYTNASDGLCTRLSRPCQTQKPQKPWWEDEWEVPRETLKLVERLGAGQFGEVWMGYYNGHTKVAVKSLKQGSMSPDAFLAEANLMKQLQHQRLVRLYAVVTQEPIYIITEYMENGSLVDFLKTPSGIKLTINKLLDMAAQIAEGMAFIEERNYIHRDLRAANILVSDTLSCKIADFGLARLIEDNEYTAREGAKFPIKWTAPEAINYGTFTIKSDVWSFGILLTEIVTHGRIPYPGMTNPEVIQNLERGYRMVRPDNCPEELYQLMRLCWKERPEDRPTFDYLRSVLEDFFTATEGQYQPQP

For `CNC(=O)c1ccccc1Nc1cc(Nc2ccc(N3CCOCC3)cc2OC)ncc1C(F)(F)F` [PND-1186], the “reduction in average spheroid size” value with 4T1 cells [1] (0.1 μM) is about 3 fold. In the series on 4T1 cells [1], the “concentration of maximal effect on spheroid size” value is 0.2 µM. Besides, the “effect on 4T1 cell adhesion to fibronectin” value in the series with 4T1 cells [2] was “did not affect 4T1 cell adhesion to fibronectin”. Further, on c-Src (pY416 Src) (PND-1186-treated 3D spheroids), the “Src pY416 and Src expression levels in spheroids” value is listed as “no change”. The “Src pY416 phosphorylation” value at c-Src (pY416 Src) (adherent 4T1 cells, 1 h, PND-1186 to 1 μM) is “did not affect c-Src activity”. Moreover, the “inhibition of FAK pY397 in ascites cells” value in series [3] (0.5 mg/ml ad libitum vs 5% sucrose) is given as over 2 fold. In addition, the ascites-associated cells entry in series [3] (setting [7]) is on record as “lower number of ascites-associated cells”. The swollen abdomens entry in series [3] (setting [7]) is “did not exhibit swollen abdomens”. In addition, the “tumor nodules within the peritoneal space” value in series [3] (0.5 mg/ml ad libitum, dsRed imaging) is listed as “significantly fewer tumor nodules”. For the same compound, in series [3] (0.5 mg/ml in 5% sucrose ad libitum), the “adverse effects and body weight” value was “No adverse effects and no body weight loss”. Besides, the “tumor burden, caspase 3 cleavage, tumor TUNEL staining” value in series [3] (0.5 mg/ml in drinking water of mice, tumor model not named at the place) was “decreased tumor burden, increased caspase 3 cleavage, and elevated tumor TUNEL staining”. This compound also gave an IC50 in series [4] of about 0.1 µM. Also, the inhibition at 1 µM (on Aurora-A; in series [5]; in series [6]) was over 50% each time.
